Data reported in ChEMBL document CHEMBL1949607, “p-Terphenyl and diterpenoid metabolites from endophytic Aspergillus sp. YXf3” (J Nat Prod, 2012).

Experiment: Inhibition of viral neuraminidase after 20 mins by fluorescence assay

Point of comparison: `COc1cc(-c2ccc(O)cc2)c(OC)c(O)c1C1=CC(=O)OC1CC(=O)O` (stereo unspecified) [TERPHENOLIDE], IC50 5.79 µM. Against it:
- COc1cc(-c2ccc(O)cc2)c(OC)c(O)c1-c1ccc(O)cc1 [TERPHENYLLIN] — higher, > 30 µM
- COc1c(-c2ccccc2)cc(O)c(-c2ccc(O)cc2)c1O — higher, > 30 µM
- COc1cc(-c2ccccc2)c(OC)c(O)c1-c1ccc(O)c(O)c1 — higher, > 30 µM
- COc1cc(-c2ccc(O)cc2)c(OC)c(O)c1-c1ccc(O)c(O)c1 — 1.6-fold higher, 9.17 µM
- COc1c(-c2ccc(O)cc2)cc(OC)c2c1oc1cc(O)c(O)cc12 [CANDIDUSIN A] — higher, > 30 µM
- COc1cc(-c2ccccc2)c(OC)c(O)c1-c1ccc(O)cc1 — within 1.5-fold, 4.34 µM
- C=C[C@@]1(C)CC[C@H]2C(=C[C@H](O)[C@H]3C(C)(C)CC[C@@H](O)[C@]23C)[C@H]1O (relative stereo) — higher, > 30 µM
- COc1c(-c2ccccc2)cc(OC)c2c1oc1cc(O)c(O)cc12 — 1.6-fold higher, 9.05 µM
- C=Cc1c(C)ccc2c1C(=O)[C@H](O)[C@H]1C(C)(C)CC[C@@H](O)[C@]21C [ASPERGILOID C] — higher, > 30 µM
- CO[C@]12OC[C@@H](O)c3c(C)ccc(c31)C1=C(C2=O)C(C)(C)CCC1 (racemic) — higher, > 30 µM
- COc1cc2oc3c(OC)c(-c4ccc(O)cc4)cc(OC)c3c2cc1OC — higher, > 30 µM
- CCOC(=O)C1=C[C@@H](OC(CC)CC)[C@H](NC(C)=O)[C@@H](N)C1 [OSELTAMIVIR] — 41-fold lower, 0.14 µM
- COc1ccc(-c2cc(OC)c3c(oc4cc(O)c(O)cc43)c2OC)cc1 [CANDIDUSIN C] — higher, > 30 µM
- COc1c(-c2ccc(O)cc2)cc(O)c(-c2ccc(O)cc2)c1O — higher, > 30 µM
- CO[C@@H]1CO[C@]2(OC)C(=O)C3=C(CCCC3(C)C)c3ccc(C)c1c32 (racemic) — higher, > 30 µM
